Data reported in paper PMC7060258 (Scientific Reports, 2020).

Experiments:
rat = conditions: cited from earlier work
[1] = system: murine neuroblastoma Neuro2a cells; test: Intracellular ROS formation level (H2DCF-DA); assay type: cell-based; conditions: 6-OHDA 25 µM alone
Procedure: We estimated whether rHCIQ2c1 is able to inhibit reactive oxygen species (ROS) production. After incubation of Neuro2a cells with rHCIQ2c1 (up to 10 µM) and 6-OHDA (25 µM), ROS content was evaluated by measurement of dichlorofluorescin intensity.
The intracellular ROS level was detected using 2,7-dichlordihydrofluorescein diacetate (H2DCF-DA) solution (Molecular Probes, final concentration 10 µM). In this study, mouse neuroblastoma Neuro2a cells seeded on 96-well plates were washed twice with serum-free DMEM and thereafter incubated for 1 h in serum-free MEM medium in the presence of compounds in concentrations from 10 pM to 10 µM. Cell were treated with 6-OHDA (25 μM) for 30 min at 37 °C with 5% CO2. Followed by treatment with 6-OHDA, the cells were washed once with PBS. After washing with serum-free DMEM medium, the cells were loaded with H2DCF-DA for 30 min. The intensity of dichlorofluorescin fluorescence was measured with plate reader PHERAstar FS (BMG Labtech, Germany) at λex = 485 nm and λem = 518 nm. The cytoprotective effect of peptides and the increase in cell viability under their action was calculated as a percentage, taking the cell viability treated with 6-OHDA as 100%.

## Nc1ccncc1 [4-aminopyridine]
rat
  Effect on MPTP-induced neurodegeneration and rat behavioral disturbances: suppresses MPTP-induced neurodegeneration and rat behavioral disturbances

## NCCc1cc(O)c(O)cc1O [6-OHDA, 6-hydroxydopamine, reference compound]
[1]
  ROS level: highest ROS level
